US20240018161A1, “MODULATORS OF CYSTIC FIBROSIS TRANSMEMBRANE CONDUCTANCE REGULATOR” (VERTEX PHARMACEUTICALS INCORPORATED, priority 2020, published 2024)

Target: T1, CFTR-mediated short-circuit current in F508del/MF-HBE cells (Homo sapiens, UniProt P13569, DEL508-508)
T1 construct: human bronchial epithelial (HBE) cells derived from CF subjects; endogenous in cells; host or cells: primary human bronchial epithelial cells from CF subjects (F508del/MF-HBE)
Test: HBE2 assay: Ussing chamber assay of CFTR-mediated short-circuit currents
Type: cell-based
Method: 1. Ussing Chamber Assay of CFTR-Mediated Short-Circuit Currents
Ussing chamber experiments were performed using human bronchial epithelial (HBE) cells derived from CF subjects heterozygous for F508del and a minimal function CFTR mutation (F508del/MF-HBE) and cultured as previously described (Neuberger T, Burton B, Clark H, Van Goor F Methods Mol Biol 2011:741:39-54). After four days the apical media was removed, and the cells were grown at an air liquid interface for >14 days prior to use.
To isolate the CFTR-mediated short-circuit (ISC) current, F508del/MF-HBE grown on Costar® Snapwell™ cell culture inserts were mounted in an Ussing chamber and the transepithelial ISC was measured under voltage-clamp recording conditions (Vhold=0 mV) at 37° C. The basolateral solution contained (in mM) 145 NaCl, 0.83 K2HPO4, 3.3 KH2PO4, 1.2 MgCl2, 1.2 CaCl2, 10 Glucose, 10 HEPES (pH adjusted to 7.4 with NaOH) and the apical solution contained (in mM) 145 NaGluconate, 1.2 MgCl2, 1.2 CaCl2, 10 glucose, 10 HEPES (pH adjusted to 7.4 with NaOH) and 30 μM amiloride to block the epithelial sodium channel. Forskolin (20 μM) was added to the apical surface to activate CFTR, followed by apical addition of a CFTR inhibitor cocktail consisting of BPO, GlyH-101, and CFTR inhibitor 172 (each at 20 μM final assay concentration) to specifically isolate CFTR currents. The CFTR-mediated ISC (μA/cm^2) for each condition was determined from the peak forskolin response to the steady-state current following inhibition.
2. Identification of Corrector Compounds
The activity of the CFTR corrector compounds on the CFTR-mediated ISC was determined in Ussing chamber studies as described above. The F508del/MF-HBE cell cultures were either incubated with the corrector compounds at a range of concentrations in combination with 44 nM (6R,12R)-17-amino-12-methyl-6,15-bis(trifluoromethyl)-13,19-dioxa-3,4,18-triazatricyclo[12.3.1.12,5]nonadeca-1(18),2,4,14,16-pentaen-6-ol or were incubated with the corrector compounds at a single fixed concentration of 1 and 3 μM in combination with 44 nM (6R,12R)-17-amino-12-methyl-6,15-bis(trifluoromethyl)-13,19-dioxa-3,4,18-triazatricyclo[12.3.1.12,5]nonadeca-1(18),2,4,14,16-pentaen-6-ol for 18-24 hours at 37° C. and in the presence of […]. The concentration of corrector compounds with 44 nM (6R,12R)-17-amino-12-methyl-6,15-bis(trifluoromethyl)-13,19-dioxa-3,4,18-triazatricyclo[12.3.1.12,5]nonadeca-1(18),2,4,14,16-pentaen-6-ol during the 18-24 hours incubations was kept constant throughout the Ussing chamber measurement of the CFTR-mediated ISC to ensure compounds were present throughout the entire experiment.

T1 sequence (P13569 with tags, fused parts or gaps DEL508-508): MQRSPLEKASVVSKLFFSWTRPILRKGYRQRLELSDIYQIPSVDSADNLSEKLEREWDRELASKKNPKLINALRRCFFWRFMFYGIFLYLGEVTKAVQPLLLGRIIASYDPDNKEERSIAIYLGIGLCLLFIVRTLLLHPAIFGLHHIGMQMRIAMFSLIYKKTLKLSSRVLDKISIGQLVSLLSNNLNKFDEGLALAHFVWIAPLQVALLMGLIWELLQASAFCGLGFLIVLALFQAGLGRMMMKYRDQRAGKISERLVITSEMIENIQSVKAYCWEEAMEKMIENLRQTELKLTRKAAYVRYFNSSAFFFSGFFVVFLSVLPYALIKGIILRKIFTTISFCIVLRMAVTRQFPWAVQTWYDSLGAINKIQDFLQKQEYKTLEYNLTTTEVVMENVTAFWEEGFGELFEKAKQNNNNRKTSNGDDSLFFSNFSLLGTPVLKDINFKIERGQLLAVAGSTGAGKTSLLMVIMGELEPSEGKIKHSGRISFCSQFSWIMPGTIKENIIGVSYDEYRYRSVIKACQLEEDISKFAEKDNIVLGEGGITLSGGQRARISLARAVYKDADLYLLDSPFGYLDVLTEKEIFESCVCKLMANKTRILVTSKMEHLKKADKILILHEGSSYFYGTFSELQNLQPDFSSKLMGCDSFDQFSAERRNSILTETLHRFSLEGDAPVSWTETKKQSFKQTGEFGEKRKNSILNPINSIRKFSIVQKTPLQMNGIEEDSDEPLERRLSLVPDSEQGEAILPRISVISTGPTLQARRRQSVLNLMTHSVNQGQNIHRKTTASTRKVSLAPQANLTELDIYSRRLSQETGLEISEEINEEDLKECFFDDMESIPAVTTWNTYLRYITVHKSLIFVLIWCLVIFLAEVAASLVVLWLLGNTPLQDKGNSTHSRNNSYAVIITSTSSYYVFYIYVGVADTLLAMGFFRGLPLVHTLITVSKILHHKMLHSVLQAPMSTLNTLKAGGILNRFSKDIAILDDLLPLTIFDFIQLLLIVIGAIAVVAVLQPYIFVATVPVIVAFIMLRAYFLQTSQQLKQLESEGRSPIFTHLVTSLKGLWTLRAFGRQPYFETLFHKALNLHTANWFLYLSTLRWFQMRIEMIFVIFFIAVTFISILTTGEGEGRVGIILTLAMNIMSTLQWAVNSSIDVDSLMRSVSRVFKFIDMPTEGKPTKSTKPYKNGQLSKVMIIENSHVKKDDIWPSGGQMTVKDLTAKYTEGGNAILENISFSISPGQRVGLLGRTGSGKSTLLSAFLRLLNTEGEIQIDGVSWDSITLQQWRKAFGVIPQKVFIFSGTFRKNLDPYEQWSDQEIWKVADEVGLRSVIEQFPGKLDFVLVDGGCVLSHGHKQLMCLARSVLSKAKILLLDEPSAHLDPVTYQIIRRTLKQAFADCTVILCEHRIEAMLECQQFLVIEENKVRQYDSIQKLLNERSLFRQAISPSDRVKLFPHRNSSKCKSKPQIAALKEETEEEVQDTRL

Row | SMILES | HBE2 Activity at 3 μM (%)
1 | Cc1cccc(C)c1-c1cc2nc(n1)NS(=O)(=O)c1cccc(c1)C(=O)N1[C@@H](c3ncc(OC(C)C)cn3)CCC(C)(C)[C@H]1CO2 (single isomer, unassigned) [Compound 386, 13-(2,6-dimethylphenyl)-4-(5-isopropoxypyrimidin-2-yl)-7,7-dimethyl-17,17-dioxo-10-oxa-17λ^6-thia-3,14,16,23-tetrazatetracyclo[16.3.1.111,15.03,8]tricosa-1(21),11,13,15(23),18(22),19-hexaen-2-one] | + (+ is <30+)
2 | Cc1cccc(C)c1-c1cc2nc(n1)NS(=O)(=O)c1cccc(c1)C(=O)N1[C@@H](c3ncc(OC(C)C)cn3)CCC(C)(C)[C@H]1CO2 (single isomer, unassigned) [Compound 387, 13-(2,6-Dimethylphenyl)-4-(5-isopropoxypyrimidin-2-yl)-7,7-dimethyl-17,17-dioxo-10-oxa-17λ^6-thia-3,14,16,23-tetrazatetracyclo[16.3.1.111,15.03,8]tricosa-1(21),11,13,15(23),18(22),19-hexaen-2-one] | +++ (+++ is >60%)
3 | Cc1cccc(C)c1-c1cc2nc(n1)NS(=O)(=O)c1cccc(c1)C(=O)N1[C@@H](c3ncc(OC(C)C)cn3)CCC[C@@H](CC(C)C)[C@H]1CO2 (single isomer, unassigned) [Compound 394, 14-(2,6-Dimethylphenyl)-8-isobutyl-4-(5-isopropoxypyrimidin-2-yl)-18,18-dioxo-11-oxa-18λ^6-thia-3,15,17,24-tetrazatetracyclo[17.3.1.112,16.03,9]tetracosa-1(22),12,14,16(24),19(23),20-hexaen-2-one] | +++ (+++ is >60%)
4 | Cc1cccc(C)c1-c1cc2nc(n1)NS(=O)(=O)c1cccc(c1)C(=O)N1[C@@H](c3ncc(OC(C)C)cn3)CCC[C@@H](CC(C)C)[C@H]1CO2 (single isomer, unassigned) [Compound 395, 14-(2,6-dimethylphenyl)-8-isobutyl-4-(5-isopropoxypyrimidin-2-yl)-18,18-dioxo-11-oxa-18λ^6-thia-3,15,17,24-tetrazatetracyclo[17.3.1.112,16.03,9]tetracosa-1(22),12,14,16(24),19(23),20-hexaen-2-one] | ++ (++ is 30-60%)
5 | Cc1cccc(C)c1-c1cc2nc(n1)NS(=O)(=O)c1cccc(c1)C(=O)N1[C@@H](c3ncc(OC(C)C)cn3)CCC[C@@H](CC(C)C)[C@H]1CO2 (single isomer, unassigned) [Compound 396, 14-(2,6-Dimethylphenyl)-8-isobutyl-4-(5-isopropoxypyrimidin-2-yl)-18,18-dioxo-11-oxa-18λ^6-thia-3,15,17,24-tetrazatetracyclo[17.3.1.112,16.03,9]tetracosa-1(22),12,14,16(24),19(23),20-hexaen-2-one] | + (+ is <30+)
6 | Cc1cccc(C)c1-c1cc2nc(n1)NS(=O)(=O)c1cccc(c1)C(=O)N1[C@@H](c3ncc(OC(C)C)cn3)CCC[C@@H](CC(C)C)[C@H]1CO2 (single isomer, unassigned) [Compound 397, 14-(2,6-dimethylphenyl)-8-isobutyl-4-(5-isopropoxypyrimidin-2-yl)-18,18-dioxo-11-oxa-18λ^6-thia-3,15,17,24-tetrazatetracyclo[17.3.1.112,16.03,9]tetracosa-1(22),12,14,16(24),19(23),20-hexaen-2-one] | +++ (+++ is >60%)
7 | Cc1cccc(C)c1-c1cc2nc(n1)NS(=O)(=O)c1cccc(c1)C(=O)N1[C@@H](c3ncc(OC(C)C)cn3)CCC[C@@H](CC(C)C)[C@H]1CO2 (single isomer, unassigned) [Compound 398, 14-(2,6-Dimethylphenyl)-8-isobutyl-4-(5-isopropoxypyrimidin-2-yl)-18,18-dioxo-11-oxa-18λ^6-thia-3,15,17,24-tetrazatetracyclo[17.3.1.112,16.03,9]tetracosa-1(22),12,14,16(24),19(23),20-hexaen-2-one] | +++ (+++ is >60%)
8 | Cc1cccc(C)c1-c1cc2nc(n1)NS(=O)(=O)c1cccc(c1)C(=O)N1[C@@H](c3ncc(OC(C)C)cn3)CCC[C@@H](CC(C)C)[C@H]1CO2 (single isomer, unassigned) [Compound 399, 14-(2,6-dimethylphenyl)-8-isobutyl-4-(5-isopropoxypyrimidin-2-yl)-18,18-dioxo-11-oxa-18λ^6-thia-3,15,17,24-tetrazatetracyclo[17.3.1.112,16.03,9]tetracosa-1(22),12,14,16(24),19(23),20-hexaen-2-one] | + (+ is <30+)
9 | Cc1cccc(C)c1-c1cc2nc(n1)NS(=O)(=O)c1cccc(c1)C(=O)N1[C@@H](c3cncc(N(C)C4CCC4)n3)CCC[C@@H](CC(C)C)[C@H]1CO2 (single isomer, unassigned) [Compound 400, 4-[6-[Cyclobutyl(methyl)amino]pyrazin-2-yl]-14-(2,6-dimethylphenyl)-8-isobutyl-18,18-dioxo-11-oxa-18λ^6-thia-3,15,17,24-tetrazatetracyclo[17.3.1.112,16.03,9]tetracosa-1(22),12,14,16(24),19(23),20-hexaen-2-one] | +++ (+++ is >60%)
10 | Cc1cccc(C)c1-c1cc2nc(n1)NS(=O)(=O)c1cccc(c1)C(=O)N1[C@@H](c3cncc(N(C)C4CCC4)n3)CCC[C@@H](CC(C)C)[C@H]1CO2 (single isomer, unassigned) [Compound 401, 4-[6-[cyclobutyl(methyl)amino]pyrazin-2-yl]-14-(2,6-dimethylphenyl)-8-isobutyl-18,18-dioxo-11-oxa-18λ^6-thia-3,15,17,24-tetrazatetracyclo[17.3.1.112,16.03,9]tetracosa-1(22),12,14,16(24),19(23),20-hexaen-2-one] | ++ (++ is 30-60%)
11 | Cc1cccc(C)c1-c1cc2nc(n1)NS(=O)(=O)c1cccc(c1)C(=O)N1[C@@H](c3cncc(N(C)C4CCC4)n3)CCC[C@@H](CC(C)C)[C@H]1CO2 (single isomer, unassigned) [Compound 402, 4-[6-[Cyclobutyl(methyl)amino]pyrazin-2-yl]-14-(2,6-dimethylphenyl)-8-isobutyl-18,18-dioxo-11-oxa-18λ^6-thia-3,15,17,24-tetrazatetracyclo[17.3.1.112,16.03,9]tetracosa-1(22),12,14,16(24),19(23),20-hexaen-2-one] | +++ (+++ is >60%)
12 | Cc1cccc(C)c1-c1cc2nc(n1)NS(=O)(=O)c1cccc(c1)C(=O)N1[C@@H](c3ncc(OC(C)C)cn3)CCC[C@@H](O2)[C@H]1CC(C)C (single isomer, unassigned) [Compound 404, 12-(2,6-dimethylphenyl)-21-isobutyl-20-(5-isopropoxypyrimidin-2-yl)-8,8-dioxo-15-oxa-8λ^6-thia-1,9,11,22-tetrazatetracyclo[14.4.1.13,7.110,14]tricosa-3,5,7(23),10(22),11,13-hexaen-2-one] | ++ (++ is 30-60%)
13 | Cc1cccc(C)c1-c1cc2nc(n1)NS(=O)(=O)c1cccc(c1)C(=O)N1[C@@H](c3ncc(OC(C)C)cn3)CCC[C@@H](O2)[C@H]1CC(C)C (single isomer, unassigned) [Compound 405, 12-(2,6-Dimethylphenyl)-21-isobutyl-20-(5-isopropoxypyrimidin-2-yl)-8,8-dioxo-15-oxa-8λ^6-thia-1,9,11,22-tetrazatetracyclo[14.4.1.13,7.110,14]tricosa-3,5,7(23),10(22),11,13-hexaen-2-one] | +++ (+++ is >60%)
14 | Cc1cccc(C)c1-c1cc2nc(n1)NS(=O)(=O)c1cccc(c1)C(=O)N1[C@@H](c3ncc(OC(C)C)cn3)CCC[C@@H](O2)[C@H]1CC(C)C (single isomer, unassigned) [Compound 406, 12-(2,6-Dimethylphenyl)-21-isobutyl-20-(5-isopropoxypyrimidin-2-yl)-8,8-dioxo-15-oxa-8λ^6-thia-1,9,11,22-tetrazatetracyclo[14.4.1.13,7.110,14]tricosa-3,5,7(23),10(22),11,13-hexaen-2-one] | +++ (+++ is >60%)
